{"source": "ChEMBL document CHEMBL3272144", "about": "“Application of the Free-Wilson technique to structurally related series of homologues. Quantitative structure-activity relationship studies of narcotic analgetics” (1977)"}
{"organism": "Mus musculus", "experiment": "Analgesic activity in mouse by hot-plate method", "format": "functional"}
{"molecule": "CN1CC[C@H]2CC1Cc1ccc(O)cc12", "note": "(stereo in doubt; 96)", "log(1/C)": 1.22}
{"molecule": "CN1CC[C@]2(C)c3cc(O)ccc3CC1[C@@H]2O", "note": "(mixture of isomers)", "log(1/C)": 0.9}
{"molecule": "CC[C@H]1C2Cc3ccc(OC)cc3[C@@]1(CC)CCN2C", "note": "(stereo in doubt; 42)", "log(1/C)": 1.81}
{"molecule": "C[C@@]12CCN(CCc3ccccc3)C(Cc3ccccc31)C2", "note": "(mixture of isomers)", "log(1/C)": 1.26}
{"molecule": "CCCCCC[C@@]12CCN(C)C(Cc3ccc(O)cc31)[C@H]2CO", "note": "(mixture of isomers)", "log(1/C)": 1.53}
{"molecule": "C[C@H]1C2Cc3ccccc3[C@@]1(C)CCN2CCC(=O)c1ccccc1", "note": "(mixture of isomers)", "log(1/C)": 1.93}
{"molecule": "C[C@H]1C2Cc3ccc(O)cc3[C@@]1(C)CCN2CCc1ccccc1", "note": "(stereo in doubt; 87)", "log(1/C)": 2.05}
{"molecule": "COc1ccc2c(c1)[C@@]1(C)CCN(C)C(C2)C1", "note": "(mixture of isomers)", "log(1/C)": 1.64}
{"molecule": "CC(=O)Oc1ccc2c(c1)[C@@]1(C)CCN(CCc3ccccc3)C(C2)[C@@H]1C", "note": "(mixture of isomers)", "log(1/C)": 3.61}
{"molecule": "CC[C@H]1C2Cc3ccc(O)cc3[C@@]1(CC)CCN2CCc1ccccc1", "note": "(mixture of isomers)", "log(1/C)": 2.61}
{"molecule": "CC[C@@]12CCN(C)C(Cc3ccc(OC(C)=O)cc31)[C@@H]2OC(C)=O", "note": "(mixture of isomers)", "log(1/C)": 2.53}
